# Laboratory results reported in the NIST ThermoML archive (doi:10.1007/s10765-006-0080-z).
# Numbers after ± are expanded uncertainties.
# Experiments:
# [1] = for thermal diffusivity: 101.33 kPa, Laser flash
# [2] = molar heat capacity at constant pressure; conditions: 101.33 kPa, Laser pulse heating
smiles,measurement,setting,value
[Zr] [zirconium],thermal diffusivity,"[1]; 289 K, Crystal 2",1.25e-05 ± 1.7e-06 m2/s
same,thermal diffusivity,"[1]; 327 K, Crystal 2",1.17e-05 ± 7e-07 m2/s
same,thermal diffusivity,"[1]; 379 K, Crystal 2",1.11e-05 ± 4e-07 m2/s
same,thermal diffusivity,"[1]; 423 K, Crystal 2",1.07e-05 ± 5e-07 m2/s
same,thermal diffusivity,"[1]; 473 K, Crystal 2",1.03e-05 ± 2e-07 m2/s
same,thermal diffusivity,"[1]; 524 K, Crystal 2",1.01e-05 ± 6e-07 m2/s
same,thermal diffusivity,"[1]; 569 K, Crystal 2",9.95e-06 ± 2e-07 m2/s
same,thermal diffusivity,"[1]; 621 K, Crystal 2",9.84e-06 ± 8e-07 m2/s
same,thermal diffusivity,"[1]; 670 K, Crystal 2",9.74e-06 ± 7e-07 m2/s
same,thermal diffusivity,"[1]; 715 K, Crystal 2",9.76e-06 ± 5e-07 m2/s
same,thermal diffusivity,"[1]; 772 K, Crystal 2",9.89e-06 ± 6e-07 m2/s
same,thermal diffusivity,"[1]; 827 K, Crystal 2",9.97e-06 ± 5e-07 m2/s
same,thermal diffusivity,"[1]; 872 K, Crystal 2",1.01e-05 ± 1.2e-06 m2/s
same,thermal diffusivity,"[1]; 923 K, Crystal 2",1.02e-05 ± 2e-07 m2/s
same,thermal diffusivity,"[1]; 970 K, Crystal 2",1.03e-05 ± 1.6e-06 m2/s
same,thermal diffusivity,"[1]; 1023 K, Crystal 2",1.05e-05 ± 6e-07 m2/s
same,thermal diffusivity,"[1]; 1068 K, Crystal 2",1.06e-05 ± 8e-07 m2/s
same,thermal diffusivity,"[1]; 1121 K, Crystal 2",9.27e-06 ± 9e-07 m2/s
same,thermal diffusivity,"[1]; 1132 K, Crystal 2",8.29e-06 ± 1.7e-06 m2/s
same,thermal diffusivity,"[1]; 1143 K, Crystal 1",7.99e-06 m2/s
same,thermal diffusivity,"[1]; 1150 K, Crystal 1",1.09e-05 ± 2.3e-06 m2/s
same,thermal diffusivity,"[1]; 1177 K, Crystal 1",1.41e-05 ± 5e-07 m2/s
same,thermal diffusivity,"[1]; 1218 K, Crystal 1",1.43e-05 ± 9e-07 m2/s
same,thermal diffusivity,"[1]; 1272 K, Crystal 1",1.48e-05 ± 3e-07 m2/s
same,thermal diffusivity,"[1]; 1317 K, Crystal 1",1.5e-05 ± 1.9e-06 m2/s
same,thermal diffusivity,"[1]; 1370 K, Crystal 1",1.51e-05 ± 8e-07 m2/s
same,thermal diffusivity,"[1]; 1431 K, Crystal 1",1.57e-05 ± 1.8e-06 m2/s
same,thermal diffusivity,"[1]; 1468 K, Crystal 1",1.57e-05 ± 2.3e-06 m2/s
same,Triple point temperature,"[1]; Crystal 2, Laser pulse heating",1141.4 ± 10 K
same,molar heat capacity at constant pressure,"[2]; 293 K, Crystal 2",26.31 ± 1.7 J/K/mol
same,molar heat capacity at constant pressure,"[2]; 323 K, Crystal 2",26.57 ± 1.4 J/K/mol
same,molar heat capacity at constant pressure,"[2]; 373 K, Crystal 2",26.89 ± 0.97 J/K/mol
same,molar heat capacity at constant pressure,"[2]; 423 K, Crystal 2",27.31 ± 0.9 J/K/mol
same,molar heat capacity at constant pressure,"[2]; 473 K, Crystal 2",27.78 ± 0.88 J/K/mol
same,molar heat capacity at constant pressure,"[2]; 523 K, Crystal 2",28.27 ± 0.88 J/K/mol
same,molar heat capacity at constant pressure,"[2]; 573 K, Crystal 2",28.82 ± 0.89 J/K/mol
same,molar heat capacity at constant pressure,"[2]; 623 K, Crystal 2",29.33 ± 0.91 J/K/mol
same,molar heat capacity at constant pressure,"[2]; 673 K, Crystal 2",29.88 ± 0.93 J/K/mol
same,molar heat capacity at constant pressure,"[2]; 723 K, Crystal 2",30.6 ± 0.95 J/K/mol
same,molar heat capacity at constant pressure,"[2]; 773 K, Crystal 2",31.24 ± 0.94 J/K/mol
same,molar heat capacity at constant pressure,"[2]; 823 K, Crystal 2",31.87 ± 0.96 J/K/mol
same,molar heat capacity at constant pressure,"[2]; 873 K, Crystal 2",32.53 ± 0.98 J/K/mol
same,molar heat capacity at constant pressure,"[2]; 923 K, Crystal 2",33.26 ± 0.99 J/K/mol
same,molar heat capacity at constant pressure,"[2]; 973 K, Crystal 2",33.94 ± 1 J/K/mol
same,molar heat capacity at constant pressure,"[2]; 1023 K, Crystal 2",34.6 ± 1 J/K/mol
same,molar heat capacity at constant pressure,"[2]; 1073 K, Crystal 2",35.23 ± 1.1 J/K/mol
same,molar heat capacity at constant pressure,"[2]; 1083 K, Crystal 2",35.42 ± 1.1 J/K/mol
same,molar heat capacity at constant pressure,"[2]; 1093 K, Crystal 2",35.84 ± 1.3 J/K/mol
same,molar heat capacity at constant pressure,"[2]; 1103 K, Crystal 2",36.88 ± 1.6 J/K/mol
same,molar heat capacity at constant pressure,"[2]; 1113 K, Crystal 2",39.48 ± 2.2 J/K/mol
same,molar heat capacity at constant pressure,"[2]; 1123 K, Crystal 2",43.12 ± 3.2 J/K/mol
same,molar heat capacity at constant pressure,"[2]; 1128 K, Crystal 2",45.62 ± 4 J/K/mol
same,molar heat capacity at constant pressure,"[2]; 1133 K, Crystal 2",49.09 ± 5.3 J/K/mol
same,molar heat capacity at constant pressure,"[2]; 1138 K, Crystal 2",61.42 ± 8.2 J/K/mol
same,molar heat capacity at constant pressure,"[2]; 1143 K, Crystal 1",52.29 ± 5.5 J/K/mol
same,molar heat capacity at constant pressure,"[2]; 1148 K, Crystal 1",42.04 ± 5.6 J/K/mol
same,molar heat capacity at constant pressure,"[2]; 1153 K, Crystal 1",33.83 ± 4.4 J/K/mol
same,molar heat capacity at constant pressure,"[2]; 1163 K, Crystal 1",31 ± 2.9 J/K/mol
same,molar heat capacity at constant pressure,"[2]; 1173 K, Crystal 1",29.58 ± 1.8 J/K/mol
same,molar heat capacity at constant pressure,"[2]; 1223 K, Crystal 1",29.71 ± 0.89 J/K/mol
same,molar heat capacity at constant pressure,"[2]; 1273 K, Crystal 1",30.06 ± 0.9 J/K/mol
same,molar heat capacity at constant pressure,"[2]; 1323 K, Crystal 1",30.23 ± 0.9 J/K/mol
same,molar heat capacity at constant pressure,"[2]; 1373 K, Crystal 1",30.3 ± 0.91 J/K/mol
same,molar heat capacity at constant pressure,"[2]; 1423 K, Crystal 1",30.53 ± 0.91 J/K/mol
same,molar heat capacity at constant pressure,"[2]; 1473 K, Crystal 1",30.72 ± 0.92 J/K/mol
same,molar heat capacity at constant pressure,"[2]; 1523 K, Crystal 1",30.91 ± 0.93 J/K/mol
same,molar heat capacity at constant pressure,"[2]; 1573 K, Crystal 1",31.36 ± 0.94 J/K/mol
same,molar heat capacity at constant pressure,"[2]; 1623 K, Crystal 1",31.34 ± 0.94 J/K/mol
same,molar heat capacity at constant pressure,"[2]; 1673 K, Crystal 1",31.59 ± 0.95 J/K/mol
same,molar heat capacity at constant pressure,"[2]; 1723 K, Crystal 1",32.07 ± 0.96 J/K/mol
same,molar heat capacity at constant pressure,"[2]; 1773 K, Crystal 1",32.8 ± 0.99 J/K/mol
same,molar heat capacity at constant pressure,"[2]; 1823 K, Crystal 1",33.31 ± 1 J/K/mol
same,molar heat capacity at constant pressure,"[2]; 1873 K, Crystal 1",33.5 ± 1 J/K/mol
same,molar heat capacity at constant pressure,"[2]; 1923 K, Crystal 1",33.68 ± 1 J/K/mol
same,molar heat capacity at constant pressure,"[2]; 1973 K, Crystal 1",34.23 ± 1 J/K/mol
